# Results reported in article PMC12655426 (Pharmaceutics, 2025).
# Columns and labels:
# OAT3 = target: T1, OAT3 (Homo sapiens, UniProt Q8TCC7); assay: OTA uptake in OAT3-overexpressing HEK293 cells (screen and kinetics)
# T1 sequence (Q8TCC7 1-542): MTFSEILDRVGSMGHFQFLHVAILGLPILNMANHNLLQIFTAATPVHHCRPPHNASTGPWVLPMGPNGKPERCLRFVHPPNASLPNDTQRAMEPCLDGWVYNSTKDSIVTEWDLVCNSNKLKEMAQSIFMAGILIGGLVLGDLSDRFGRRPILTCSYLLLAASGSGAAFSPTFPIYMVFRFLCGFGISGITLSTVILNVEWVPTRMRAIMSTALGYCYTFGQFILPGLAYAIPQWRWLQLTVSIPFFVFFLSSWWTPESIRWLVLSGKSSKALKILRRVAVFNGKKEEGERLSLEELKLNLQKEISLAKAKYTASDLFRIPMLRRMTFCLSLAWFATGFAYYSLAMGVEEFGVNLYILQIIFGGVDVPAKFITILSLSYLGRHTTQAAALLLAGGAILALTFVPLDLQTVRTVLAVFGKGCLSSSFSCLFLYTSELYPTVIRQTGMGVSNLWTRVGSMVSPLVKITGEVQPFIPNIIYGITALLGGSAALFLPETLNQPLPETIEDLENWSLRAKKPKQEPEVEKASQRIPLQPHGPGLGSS
# Description: (§1) The following experiments were conducted at the University of Washington. Mock HEK293 cells and transporter-overexpressing HEK293 cells (i.e., OAT1–4, OCT2, MATE1/2K, OCTN1, OATP1A2), mock CHO cells, and OCTN2-overexpressing CHO cells were plated in 96 well plates coated with 0.05 mg/mL of poly-D-lysine in 50 μL DPBS at a density of 800,000 cells/mL and grown until reaching over 90% of confluence. […] For uptake experiments in MATE1- and MATE2-K-expressing HEK293 cells, the pH of the incubation buffer was adjusted to 8.0 to facilitate substrate uptake. For uptake experiments in OATP1A2-expressing and OAT4-expressing HEK293 cells, the pH of the incubation buffer was adjusted to 6.5 to mimic pH of the urinary filtrate, as these are apical transporters. The incubation buffer was kept at pH 7.4 for all other transporters. […] Uptake was quenched by removing the substrates/inhibitors and washing the cells 3 times with 200 μL of ice-cold HBSS++. […] The precipitated protein was allowed to dry and subsequently solubilized overnight in 1M NaOH, neutralized with 1 M HCl the next day, and measured by BCA assay.
# (§2) All cellular-based assays were conducted in technical triplicate across three independent experiments. […] This cutoff was defined a priori. […] Jnet was then treated as the initial uptake rate, and Km and Vmax values were obtained by fitting the Michaelis–Menten equation to the substrate-concentration data as described above. Intrinsic clearance (CLint) was then calculated by the formula, CLint=Vmax/Km using Vmax and Km values as calculated above. […] At steady-state, the mass balance for intracellular concentrations assuming symmetric passive permeabilities (Papical = Pbasal, taken as Papp from mock assays) and apical efflux gives: Ccell= Cbasal/1+ ke/Pa where Cbasal is the concentration in the basal chamber and ke is the first-order elimination with respect to BCRP. Because the asymmetric efflux ratio ERa is defined as: ERa=1+ ke/Pa
# OATP1A2 = target: T2, OATP1A2 (Homo sapiens, UniProt P46721); assay: OTA uptake in OATP1A2-overexpressing HEK293 cells (screen and kinetics)
# T2 sequence (P46721 1-670): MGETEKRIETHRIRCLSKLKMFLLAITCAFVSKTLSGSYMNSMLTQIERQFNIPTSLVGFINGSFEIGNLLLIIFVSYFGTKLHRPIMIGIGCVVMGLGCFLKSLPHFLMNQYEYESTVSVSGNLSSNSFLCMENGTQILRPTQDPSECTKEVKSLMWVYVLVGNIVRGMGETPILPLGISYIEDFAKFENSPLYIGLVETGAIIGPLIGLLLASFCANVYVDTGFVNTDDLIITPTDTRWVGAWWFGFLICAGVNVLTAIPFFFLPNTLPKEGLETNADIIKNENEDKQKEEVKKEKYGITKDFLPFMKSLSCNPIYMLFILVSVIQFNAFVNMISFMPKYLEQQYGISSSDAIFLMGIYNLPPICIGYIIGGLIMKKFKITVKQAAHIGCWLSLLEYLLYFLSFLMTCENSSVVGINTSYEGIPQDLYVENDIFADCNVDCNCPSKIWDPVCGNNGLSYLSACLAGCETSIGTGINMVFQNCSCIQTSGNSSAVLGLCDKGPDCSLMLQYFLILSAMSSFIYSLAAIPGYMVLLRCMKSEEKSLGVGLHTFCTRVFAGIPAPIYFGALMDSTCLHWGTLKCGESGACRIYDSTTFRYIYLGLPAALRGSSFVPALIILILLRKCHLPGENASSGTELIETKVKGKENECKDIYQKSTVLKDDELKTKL
# Description: as §1, §2
# human BCRP = target: T3, human BCRP (Homo sapiens, UniProt Q9UNQ0); assay: Bidirectional transport of OTA in BCRP-expressing MDCK-II cells; conditions: net B to A flux, 1.56 to 100 μM OTA
# T3 sequence (Q9UNQ0 1-655): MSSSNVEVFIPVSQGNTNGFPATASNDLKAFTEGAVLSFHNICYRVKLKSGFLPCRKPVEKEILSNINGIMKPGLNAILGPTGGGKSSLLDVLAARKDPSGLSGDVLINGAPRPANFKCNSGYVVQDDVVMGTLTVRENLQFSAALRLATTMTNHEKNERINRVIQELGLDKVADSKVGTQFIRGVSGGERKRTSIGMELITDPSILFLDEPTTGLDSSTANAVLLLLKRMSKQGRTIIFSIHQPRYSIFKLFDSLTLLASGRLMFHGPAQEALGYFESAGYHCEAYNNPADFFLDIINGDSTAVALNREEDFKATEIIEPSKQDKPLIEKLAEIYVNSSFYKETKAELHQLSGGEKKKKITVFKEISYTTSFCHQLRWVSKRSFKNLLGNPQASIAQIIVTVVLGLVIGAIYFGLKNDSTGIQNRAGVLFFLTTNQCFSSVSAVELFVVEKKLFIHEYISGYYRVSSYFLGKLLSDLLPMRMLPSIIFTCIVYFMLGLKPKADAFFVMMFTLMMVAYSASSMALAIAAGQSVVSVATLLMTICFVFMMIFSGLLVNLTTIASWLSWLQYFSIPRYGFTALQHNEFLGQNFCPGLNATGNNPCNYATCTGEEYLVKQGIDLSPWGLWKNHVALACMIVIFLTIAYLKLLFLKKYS
# Description: as §2
# [1] = system: human serum albumin (HSA); conditions: no reference given; cited from earlier work
# [2] = single fasted volunteer, microdose of radioactive OTA in ethanol, within 8 h, not absolute bioavailability; cited from earlier work
# [3] = 0.5 mg/kg oral, rats, cited from earlier work
structure (smiles),measurement,setting,value
"C[C@@H]1Cc2c(Cl)cc(C(=O)N[C@@H](Cc3ccccc3)C(=O)O)c(O)c2C(=O)O1 [OTA, Ochratoxin A]",Vmax,"OAT3; HEK293, 5 min, 37 °C, pH 7.4, mock-corrected",141.4 ± 30.3 pmol/mg/min
same,microsomal CLint,"OAT3; human, other cell line, pH 7.4",56.1 ± 6.3 µL/min/mg
same,Km at 5 min,"OAT3; human, pH 7.4",2.58 ± 0.83 µM
same,Vmax,"OATP1A2; HEK293, 5 min, 37 °C, pH 6.5, mock-corrected",801.0 ± 133.9 pmol/mg/min
same,microsomal CLint,"OATP1A2; human, other cell line, pH 6.5",21.6 ± 2.3 µL/min/mg
same,Km at 5 min,"OATP1A2; human, pH 6.5",37.3 ± 6.2 µM
same,apparent CLint estimated by the slope of the linearly fitted line,human BCRP,0.29 ± 0.03 µL/min/cm^2
same,bound to human serum albumin,[1],> 99%
same,percentage of administered radioactivity detected in plasma,[2],~ 93%
same,OTA accumulated in kidney tissue,[3]; after 24 h,over 400 pmol/g
same,dose recovered in urine and feces,[3]; after 96 h,15%
